Assay results: US20260185056A1, “TRIPLE TISSUE CULTURE FUSION” (IMBA - INSTITUT FÜR MOLEKULARE BIOTECHNOLOGIE GMBH, priority 2022, published 2026)
“Also recorded” adds a separate entry of the source.

Experiments:
striatal organoids = assay: SAG dose-response curve in presence of IWP2 for LGE patterning of striatal organoids; type: cell-based, human
Method: Panel C, D: Quantifications of GSX2^+ rosettes and PAX6^− rosettes, indicating LGE identity.
Panel E-F: Immunolabeling of CTIP2, an important early striatal marker, in two conditions with promising numbers of GSX2^+ rosettes, but low PAX6 expression.
For striatal organoid preparation, cells were grown for 2-3 days after splitting in MG coated 6 well plates and dissociated using 600 μl Accutase. 9000 cells were then transferred into 150 μl neural induction media containing 10 nM SAG and 2.5 μM IWP2 (SigmaAldrich, Cat. #10536) as well as 1:100 ROCK inhibitor. Media was exchanged on day 2 by replacing 100 μl media with 150 μl fresh NI media containing 10 nM SAG, 2.5 μM IWP2 and 1:100 ROCK inhibitor.
Striatal neurons are born majorly from the lateral ganglionic eminence (LGE), from where they migrate and form the developing striatum (Fjodorova, Noakes and Li, Neurogenesis, 2(1), 2015, Ornorati et al., Nat. Neurosci. 17, 1804-15, 2014). To pattern into LGE, we performed a dose curve experiment in a Wnt inhibitory context (IWP-2, which anteriorized and inhibits dorsal fate) similar to previous 2D differentiation approaches (Wu et al., Stem Cell Reports 11, 635-650, 2018). In brief, we activated sonic hedgehog signaling with the small molecule SAG at concentrations between 10 nM and 100 nM (FIG. 4B). We performed a SAG dose-response curve in the presence of the Wnt inhibitor IWP2 in an otherwise growth-factor free neural induction media.

[1] = test system: ventral midbrain organoids; assay: SAG dose curve for floor plate induction in ventral midbrain organoids (qPCR FOXA2); type: cell-based, human; conditions: day 4-11, with dual SMAD inhibition and Wnt activation; by day 20
Method: FIG. 2A-D: qPCR analysis of markers of ventral midbrain of the dose curving experiment to generate ventral midbrain organoids. Two separate dose curving experiments were performed, where first the correct dosage of sonic hedgehog activation was tested (FIG. 2A, floor plate marker FOXA2). Secondly, we performed qPCR to test for appropriate concentrations of posteriorization using Wnt activation. Dopaminergic neurons are born in the very ventral floor plate of the posterior midbrain, next to the midbrain-hindbrain boundary, thus the Forebrain and Midbrain marker OTX2 should still be expressed, whereas the hindbrain is OTX2 negative. We found a concentration of 0.8-1 μM sufficient to introduce midbrain (FIG. 2B), while the floor plate marker FOXA2 was still expressed (FIG. 2C). qPCR for the dopaminergic marker TH (Tyrosine hydroxylase, the rate-limiting enzyme for dopamine synthesis) confirmed this concentration of Wnt activation, with a sharp drop of TH expression starting at 1.2 μM CHIR (FIG. 2D).
All qPCR data are relative to the expression of TBP.
For ventral midbrain organoid preparation, cells were grown for 2-3 days after splitting in MG coated 6 well plates and dissociated using 600 μl Accutase. […] Cells were resuspended in 1 ml stem cell media +1:100 RI and counted. […]
Quantification was performed in excel by calculating ΔCt relative to TBP. […]

[2] = lowest concentration of SAG (10 nM), with IWP2, day 28 organoids

**Q.** Which results are given for `CN[C@H]1CC[C@H](N(Cc2cccc(-c3ccncc3)c2)C(=O)c2sc3ccccc3c2Cl)CC1` [SAG, 3-Chloro-N-[trans-4-(methylamino)cyclo-hexyl]-N-[[3-(4-pyridinyl)phenyl]methyl]benzo[b]thiophene-2-carboxamide]?
**A.** CTIP2 expression (striatal organoids; 25 nM SAG treated organoids compared with SAG10 treated organoids): much lower; also recorded: significantly lower; rosettes expressing the LGE marker GSX2 (striatal organoids; [2]): high level; rosettes expressing the more dorsal marker PAX6 (striatal organoids; [2]): low number; concentration sufficient to introduce maximal FOXA2 expression levels [1]: 300 nM
